The target in experiment [1] is T1, BRC4/RAD51 interaction (Homo sapiens, UniProt Q06609).
T1 construct: purchased Creative Biomart (Rad51); Life Technologies (BRC4 peptide)
T1 sequence (Q06609 1-339): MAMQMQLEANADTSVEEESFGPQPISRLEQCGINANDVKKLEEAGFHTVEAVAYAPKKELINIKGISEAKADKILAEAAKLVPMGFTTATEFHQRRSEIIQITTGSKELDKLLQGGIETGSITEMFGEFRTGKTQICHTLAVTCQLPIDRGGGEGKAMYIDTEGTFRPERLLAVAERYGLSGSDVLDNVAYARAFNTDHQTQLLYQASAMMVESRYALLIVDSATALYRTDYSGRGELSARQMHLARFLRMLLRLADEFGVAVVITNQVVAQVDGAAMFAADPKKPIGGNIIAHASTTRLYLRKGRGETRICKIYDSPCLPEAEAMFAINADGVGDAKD
Nature of the experiment: Competitive ELISA assay, disruption of BRC4/RAD51 interaction. Format: binding. The settings on record: human Rad51, biotinylated BRC4 peptide. The procedure:
A competitive ELISA screening assay using biotinylated BRC4 peptide to disrupt the BRC4/RAD51 interaction was performed by modifying the method described by Rajendra et al. (Nucleic Acids Res. 38 (2010) 82-96). BRC4-biotinylated peptide (N-term Biotin[…] from Life Technologies) was used to coat 384-well plates (Nunc). After washing with PBS containing 0.05% Tween-20 (PBST), and blocking with the solution BSA 1%/PBST, overnight hybridization with human Rad51 protein (NP_002866 Creative Biomart, NY) was performed. Test compounds were added in dose-response from […] in triplicate with constant DMSO 1%. Antibody raised against Rad51 (Millipore) and HRP-secondary antibody staining to develop the 3,30,5,50-tetramethyllbenzidine signal (Sigma) quenched with 1M HCl was used as the assay readout. Colorimetric measure was read on Victor5 (PerkinElmer) plate Reader. BRC4 and Rad51 were included in the assay as positive control. Results were analyzed using GraphPad Software.

In experiment [2] the test system is BxPC-3 cells. Nature of the experiment: Cell viability assay (CellTiter Glo). Format: cell-based. The following applies: Homo sapiens, 72 h. The procedure:
(§1) BxPC-3 cells were grown in RPMI 1640 containing 10% FBS, 100 U/ml penicillin/streptomycin, 2 mM glutamine. All media and supplements were from Sigma-Aldrich. Cultures were routinely tested for Mycoplasma contamination. Treatments (Olaparib and BRCA2-Rad51 disruptors) were administered in culture medium supplemented with 0.6% DMSO. The same amount of DMSO was added to the control, untreated cultures.
(§2) Cell viability was assessed by CellTiter Glo, Luminescent Cell Viability Assay. Briefly, BxPC-3 cells (1×10^4/well) were plated in white 96-well plates with clear bottom and treated for 72 h with olaparib (10 μM) or with the BRCA2-Rad51 disruptors, given alone or in combination. After treatments, the plate was allowed to equilibrate at room temperature for 30 min and the CellTiter-Glo reactive was directly added to each well. The plate was kept on a shaker for 2 min to induce cell lysis and its luminescence was measured by using a Fluoroskan Ascent FL reader (Labsystems) using manufacturer's instructions.

Experiment [3] has as its system Homologous recombination (HR) in BxPC3 cells. As to the kind of experiment: Homologous recombination assay (HR). The following applies: Homo sapiens; for inhibition at 20 µM: BXPC-3, at 20 μM. The experiment is classed as cell-based. Here is the method:
Homologous recombination (HR) was assessed by using a commercially available assay (Norgen). This assay is based on cell co-transfection with two plasmids that, upon cells entering, recombinate. The efficiency of HR can be assessed by real time PCR, using primer mixtures included in the assay kit. Different primer mixtures allow differentiation between the original plasmid backbones and their recombination product.
BxPC3 cells (2×10^3 per well) were seeded in a 24-well plate and allowed to adhere overnight. Co-transfection with the two plasmids was performed in Lipofectamine 2000 (Invitrogen) for 5 h, according to the manufacturer's instructions. During transfection cells were exposed at different doses of BRCA2-Rad51 disruptors, dissolved in RPMI without serum in the presence of 0.6% DMSO.
After washing with PBS, cells were harvested, and DNA was isolated using QIAamp® DNA Mini Kit (Qiagen). Sample concentration was measured using an ONDA Nano Genius photometer.
The thermal cycler (CFX96 ™ Real Time System, BioRad) was programmed as follows: initial denaturation 95° C. for 3 min then 95° C. for 15 sec., 61° C. for 30 sec., 72° C. for 1 min and repeated for 40 cycles. Melt curve analysis was done. Samples were run in triplicate, in 10 μl reaction volume containing 25 ng of template.
In each DNA sample from control and treated cultures, the ΔCt between the recombination product and the backbone plasmids was calculated. HR efficiency was evaluated from the 2^−ΔΔ^Ct value obtained by comparing treated vs control samples.

Experiment [4] deals with BxPC-3 cells. Nature of the experiment: Association with olaparib (given alone or in combination), cell viability / cytotoxicity. The experiment is classed as cell-based. The settings on record: olaparib 10 μM, 72 h. The procedure:
as §1, §2
Cell death was assessed by applying the CellTox™ Green Cytotoxicity assay (Promega). Briefly, BxPC-3 (1×10^4/well) were plated in black 96-well plates with clear bottom and treated for 72 h with olaparib (10 μM) or with the BRCA2-Rad51 disruptors, given alone or in combination. At the end of treatment, the CellTox™ dye was added to cell cultures and the green fluorescence signal, which is produced by the binding interaction with dead cell DNA, was measured following the manufacturer's instructions. The fluorescence signal was detected using the EnSpire 2300 Multilabel Reader (Perkin Elmer); for each sample, the obtained signal was normalized on the number of viable cells, detected by the CellTiterGlo reagent.

Regarding `CCCn1ncc2cc(C3CC(c4c(-c5ccccc5)c5cc(Cl)ccc5[nH]c4=O)=NN3C(C)=O)ccc21` (stereo not drawn) [d.34, 3-[2-acetyl-3-(1-propylindazol-5-yl)-3,4-dihydropyrazol-5-yl]-6-chloro-4-phenyl-1H-quinolin-2-one], the EC50 in experiment [1] was 0.95 µM; in experiment [2], 11 µM. In experiment [3] (BXPC-3, at 5 μM), the inhibition at 5 µM is 83%.
Consider `Cn1ccc2cc(C3CC(c4c(-c5ccccc5)c5cc(Cl)ccc5[nH]c4=O)=NN3C(=O)CCC(=O)O)ccc21` (stereo not drawn) [d.22, 4-[5-(6-chloro-2-oxo-4-phenyl-1H-quinolin-3-yl)-3-(1-methylindol-5-yl)-3,4-dihydropyrazol-2-yl]-4-oxo-butanoic acid], for which the EC50 in experiment [1] was 2 µM; in experiment [2], above 20 µM. Further, the “Olaparib Assoc.” value in experiment [4] was “synergy”.
As to `O=C(O)CCC(=O)N1N=C(c2c(Cc3ccccc3)c3cc(Cl)ccc3[nH]c2=O)CC1c1ccc(-c2ccc(Cl)cc2)cc1` (stereo not drawn) [d.84, 4-[5-(4-benzyl-6-chloro-2-oxo-1H-quinolin-3-yl)-3-[4-(4-chlorophenyl)phenyl]-3,4-dihydropyrazol-2-yl]-4-oxo-butanoic acid], the figures for the EC50 in experiment [1] and in experiment [2] were 90 µM and 28.4 µM, respectively. Moreover, the inhibition at 20 µM in experiment [3] turned out to be 21.7%.
The corresponding values for `O=C(O)CCC(=O)N1N=C(c2c(-c3ccccc3)c3cc(Cl)ccc3[nH]c2=O)CC1c1cccnc1` (stereo not drawn) [d.98, 4-(3-(6-chloro-2-oxo-4-phenyl-1,2-dihydroquinolin-3-yl)-5-(pyridin-3-yl)-4,5-dihydro-1H-pyrazol-1-yl)-4-oxobutanoic acid] are 75 µM, 144 µM and 22%.
The corresponding values for `COc1ccc(C2CC(c3c(Cc4ccccc4)c4cc(Cl)ccc4[nH]c3=O)=NN2C(=O)CCC(=O)O)cc1F` (stereo not drawn) [d.66, 4-[5-(4-benzyl-6-chloro-2-oxo-1H-quinolin-3-yl)-3-(3-fluoro-4-methoxy-phenyl)-3,4-dihydropyrazol-2-yl]-4-oxo-butanoic acid] are 25 µM, 79.2 µM and 6.15%.
`NCCC(=O)N1N=C(c2c(-c3ccccc3)c3cc(Cl)ccc3[nH]c2=O)CC1c1ccc(F)cc1` (stereo not drawn) [d.4, 3-[2-(3-aminopropanoyl)-3-(4-fluorophenyl)-3,4-dihydropyrazol-5-yl]-6-chloro-4-phenyl-1H-quinolin-2-one]: the results for the EC50 in experiment [1] and in experiment [2] were above 100 µM and 7.6 µM, respectively.
`CC(=O)N1N=C(c2c(-c3ccccc3)c3cc(Cl)ccc3[nH]c2=O)CC1c1ccc2c(ccn2C)c1` (stereo not drawn) [d.23, 3-[2-acetyl-3-(1-methylindol-5-yl)-3,4-dihydropyrazol-5-yl]-6-chloro-4-phenyl-1H-quinolin-2-one]: the EC50 was 18 µM in experiment [1] and 4.8 µM in experiment [2].
The corresponding values for `Cn1cc2cc(C3CC(c4c(-c5ccccc5)c5cc(Cl)ccc5[nH]c4=O)=NN3C(=O)CCC(=O)O)ccc2n1` (stereo not drawn) [d.28, 4-[5-(6-chloro-2-oxo-4-phenyl-1H-quinolin-3-yl)-3-(2-methylindazol-5-yl)-3,4-dihydropyrazol-2-yl]-4-oxo-butanoic acid] are above 100 µM and above 100 µM.
The matching figures for `O=C(O)CCC(=O)N1N=C(c2c(-c3ccccc3)c3cc(Cl)ccc3[nH]c2=O)CC1c1ccc(F)cc1` (stereo not drawn) [d.1, 4-[5-(6-chloro-2-oxo-4-phenyl-1H-quinolin-3-yl)-3-(4-fluorophenyl)-3,4-dihydropyrazol-2-yl]-4-oxo-butanoic acid]: 38 µM and above 50 µM.
`CCn1cc2cc(C3CC(c4c(-c5ccccc5)c5cc(Cl)ccc5[nH]c4=O)=NN3C(C)=O)ccc2n1` (stereo not drawn) [d.30, 3-[2-acetyl-3-(2-ethylindazol-5-yl)-3,4-dihydropyrazol-5-yl]-6-chloro-4-phenyl-1H-quinolin-2-one]: the EC50 in experiment [1] was above 100 µM; in experiment [2] it was 16.8 µM.
The matching figures for `CCCn1cc2cc(C3CC(c4c(-c5ccccc5)c5cc(Cl)ccc5[nH]c4=O)=NN3C(=O)CCC(=O)O)ccc2n1` (stereo not drawn) [d.35, 4-[5-(6-chloro-2-oxo-4-phenyl-1H-quinolin-3-yl)-3-(2-propylindazol-5-yl)-3,4-dihydropyrazol-2-yl]-4-oxo-butanoic acid]: above 100 µM and 62.6 µM.
The matching figures for `COc1ccc(-c2c(C3=NN(C(=O)CCC(=O)O)C(c4ccc(F)cc4)C3)c(=O)[nH]c3ccc(Cl)cc23)cc1` (stereo not drawn) [d.19, 4-[5-[6-chloro-4-(4-methoxyphenyl)-2-oxo-1H-quinolin-3-yl]-3-(4-fluorophenyl)-3,4-dihydropyrazol-2-yl]-4-oxo-butanoic acid]: above 100 µM and 76 µM.
The matching figures for `CCn1cc2cc(-c3ccc(C4CC(c5c(Cc6ccccc6)c6cc(Cl)ccc6[nH]c5=O)=NN4C(=O)CCC(=O)O)cc3)ccc2n1` (stereo not drawn) [d.93, 4-[5-(4-benzyl-6-chloro-2-oxo-1H-quinolin-3-yl)-3-[4-(2-ethylindazol-5-yl)phenyl]-3,4-dihydropyrazol-2-yl]-4-oxo-butanoic acid]: 53 µM and 56.6 µM.
With `CC(=O)N1N=C(c2c(-c3ccccc3)c3cc(Cl)ccc3[nH]c2=O)CC1c1ccc(C(C)(C)C)cc1` (stereo not drawn) [d.17, 3-[2-acetyl-3-(4-tert-butylphenyl)-3,4-dihydropyrazol-5-yl]-6-chloro-4-phenyl-1H-quinolin-2-one], the EC50 in experiment [1] and in experiment [2] was 15 µM throughout.
As for `COc1ccc(C2CC(c3c(-c4ccccc4)c4cc(Cl)ccc4[nH]c3=O)=NN2C(=O)CCC(=O)O)cc1F` (stereo not drawn) [d.18, 4-[5-(6-chloro-2-oxo-4-phenyl-1H-quinolin-3-yl)-3-(3-fluoro-4-methoxy-phenyl)-3,4-dihydropyrazol-2-yl]-4-oxo-butanoic acid], the EC50 in experiment [1] is above 100 µM; in experiment [2], 73 µM.
The corresponding values for `CCn1ccc2cc(C3CC(c4c(-c5ccccc5)c5cc(Cl)ccc5[nH]c4=O)=NN3C(=O)CCC(=O)O)ccc21` (stereo not drawn) [d.24, 4-[5-(6-chloro-2-oxo-4-phenyl-1H-quinolin-3-yl)-3-(1-ethylindol-5-yl)-3,4-dihydropyrazol-2-yl]-4-oxo-butanoic acid] are 10 µM and above 40 µM.
The matching figures for `CC(=O)N1N=C(c2c(-c3ccccc3)c3cc(Cl)ccc3[nH]c2=O)CC1c1ccncc1` (stereo not drawn) [d.97, 3-(1-acetyl-5-(pyridin-4-yl)-4,5-dihydro-1H-pyrazol-3-yl)-6-chloro-4-phenylquinolin-2 (1H)-one]: 60 µM and 24.3 µM.

In general, EC50 refers to the concentration at which the effect is half-maximal. The term inhibition denotes the percentage by which the read-out fell short of the control.

For the origin of these results see patent publication US12459914B2, “Compounds and compositions for the treatment of tumors” (FONDAZIONE ISTITUTO ITALIANO DI TECNOLOGIA, priority 2019, dated 2025).
